These results are taken from US6451809B2 (dated 2002).

One may read the melting point as the temperature of the solid-liquid transition. Compound `Cc1ccc(CNC(=O)C2=C3N(CCC2=O)c2ccccc2N3CCN(C)C)cc1` displayed a melting point of 120 to 122 °C.
Consider `CCNCCOc1ccc(NC(=O)C2=C(O)CCn3c2nc2ccccc23)cc1.Cl`, for which the melting point is 60 to 65 °C.
As to `Cl.O=C(Nc1ccc(OCCN2CCCC2)cc1)C1=C(O)CCn2c1nc1ccccc12`, the melting point was in the range of 130 to 142 °C.
The figure for `CCN(CC)CCOc1ccncc1NC(=O)C1=C(O)CCn2c1nc1ccccc12.Cl` is 175 to 178 °C; for `Cl.O=C(Nc1cnccc1OCCN1CCCC1)C1=C(O)CCn2c1nc1ccccc12` it is 170 to 174 °C.
With `Cl.O=C(Nc1cnccc1OCCN1CCCCC1)C1=C(O)CCn2c1nc1ccccc12` the figure was 225 to 230 °C.
The figure for `Cl.O=C(Nc1cnccc1OCCOCCN1CCCC1)C1=C(O)CCn2c1nc1ccccc12` is 55 to 65 °C; for `Cl.O=C(Nc1cnccc1OCCCN1CCCC1)C1=C(O)CCn2c1nc1ccccc12` it is 60 to 68 °C.
`CN(C)CCN1C2=C(C(=O)NCc3ccccc3Cl)C(=O)CCN2c2ccccc21` showed a melting point of 138 to 140 °C.
